Measurements from patent US11021493B2, “1,4-thiazine dioxide and 1,2,4-thiadiazine dioxide derivatives as beta-secretase inhibitors and methods of use” (AMGEN INC., priority 2016, dated 2021).

Experiments:
human recombinant BACE2 = human recombinant BACE2 (Homo sapiens (Human), UniProt Q9Y5Z0); assay: In vitro enzymatic BACE2 FRET assay; assay type: biochemical; settings: read-out: BACE2 Enzyme IC50
β-secretase = β-secretase (Rattus norvegicus (Rat), UniProt P56819); assay: In vivo inhibition of β-secretase: Aβ reduction in rat CSF and brain
Description: In Vivo Inhibition of β-Secretase
Animals to be used in this experiment can be wild type, transgenic, or gene knockout animals.
A separate group of animals receive 2% hydroxypropyl methylcellulose, 1% Tween80 alone, containing no test compound, and serve as a vehicle-control group. At the end of the test period, animals are sacrificed and brain tissues, plasma or cerebrospinal fluid are collected. […] Homogenates are centrifuged at 355,000 g, 4° C. for 30 minutes. CSF or brain supernatants are then analyzed for the presence of Aβ by specific sandwich ELISA assays based on ECL (Electrochemiluminescence) technology. For example, rat Aβ40 is measured using biotinylated-4G8 (Signet) as a capture antibody and Fab40 (an in-house antibody specific to the C-terminal of Aβ40) as a detection antibody.

BACE1 [1] = target: T1, BACE1 (Homo sapiens (Human), UniProt P56817); assay: In vitro BACE1 cell-based assay (Aβ40 in conditioned medium of cells stably expressing APP, HTRF); settings: Aβ40 in conditioned media after 24 h incubation
Target sequence in this assay (P56817 46-501, species assumed): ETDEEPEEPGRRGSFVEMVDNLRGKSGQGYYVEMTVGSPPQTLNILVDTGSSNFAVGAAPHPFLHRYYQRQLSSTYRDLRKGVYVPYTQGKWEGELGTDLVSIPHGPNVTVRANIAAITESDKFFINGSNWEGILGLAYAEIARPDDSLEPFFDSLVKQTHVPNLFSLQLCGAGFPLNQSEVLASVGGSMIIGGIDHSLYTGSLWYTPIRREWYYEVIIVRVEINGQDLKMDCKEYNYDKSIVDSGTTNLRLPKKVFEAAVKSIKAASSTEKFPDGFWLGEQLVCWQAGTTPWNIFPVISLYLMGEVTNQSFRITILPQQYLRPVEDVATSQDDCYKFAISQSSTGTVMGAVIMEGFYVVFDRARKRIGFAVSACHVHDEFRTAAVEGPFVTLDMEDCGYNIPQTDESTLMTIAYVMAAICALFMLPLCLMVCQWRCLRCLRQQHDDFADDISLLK

BACE1 [2] = target: T1, BACE1; assay: In vitro enzymatic BACE1 FRET assay; assay type: biochemical; settings: read-out: BACE1 Enzyme IC50
Target sequence in this assay (P56817 46-501): as the sequence (P56817 46-501, species assumed) above

Cathepsin D (CatD) = Cathepsin D (CatD) (Homo sapiens (Human), UniProt P07339); assay: In vitro enzymatic Cathepsin D (CatD) FRET assay; assay type: biochemical; settings: read-out: Cat D Enzyme IC50
Chain of Cathepsin D (CatD) (P07339 65-412, species assumed): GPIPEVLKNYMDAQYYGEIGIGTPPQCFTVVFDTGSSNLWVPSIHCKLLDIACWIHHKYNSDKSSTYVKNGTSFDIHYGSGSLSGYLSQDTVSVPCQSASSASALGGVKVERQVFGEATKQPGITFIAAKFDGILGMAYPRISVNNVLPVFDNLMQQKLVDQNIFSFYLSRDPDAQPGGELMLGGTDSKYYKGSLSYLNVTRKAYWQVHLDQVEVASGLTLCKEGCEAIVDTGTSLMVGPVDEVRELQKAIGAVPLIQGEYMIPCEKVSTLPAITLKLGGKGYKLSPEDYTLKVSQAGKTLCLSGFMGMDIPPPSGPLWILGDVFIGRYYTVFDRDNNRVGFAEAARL

Chain of human recombinant BACE2 (Q9Y5Z0 63-518): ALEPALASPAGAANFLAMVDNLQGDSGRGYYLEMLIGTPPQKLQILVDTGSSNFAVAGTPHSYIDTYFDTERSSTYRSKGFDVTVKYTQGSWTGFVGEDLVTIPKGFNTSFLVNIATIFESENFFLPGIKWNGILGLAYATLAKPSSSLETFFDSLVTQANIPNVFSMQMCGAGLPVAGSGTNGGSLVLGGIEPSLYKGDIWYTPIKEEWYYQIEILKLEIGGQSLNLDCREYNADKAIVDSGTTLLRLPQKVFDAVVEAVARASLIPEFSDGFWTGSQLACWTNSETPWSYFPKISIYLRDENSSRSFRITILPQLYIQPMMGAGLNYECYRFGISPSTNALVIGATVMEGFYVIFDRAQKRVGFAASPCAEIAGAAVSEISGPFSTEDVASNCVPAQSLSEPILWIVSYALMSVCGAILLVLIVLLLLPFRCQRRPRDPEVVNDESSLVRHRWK
Chain of β-secretase (P56819 46-501): as the sequence (P56817 46-501, species assumed) above, with G82S, V162I, L165I, S180T, V182A, I340V, L393A, Q443H counted along it

IC50 (human recombinant BACE2)	% Aβ reduction in rat CSF at 10 mpk (β-secretase)	% Aβ reduction in rat brain at 10 mpk (β-secretase)	IC50 (BACE1 [1])	IC50 (BACE1 [2])	IC50 (Cathepsin D (CatD))	SMILES
97 nM	12%	16%	6 nM	3 nM	151000 nM	Cc1noc(COc2cnc(/C(F)=C/c3ccc(F)c([C@]4(C)CS(=O)(=O)N(C)C(N)=N4)c3)cn2)n1 [Example 146, (R,Z)-3-amino-5-(2-fluoro-5-(2-fluoro-2-(5-((3-methyl-1,2,4-oxadiazol-5-yl)methoxy)pyrazin-2-yl)vinyl)phenyl)-2,5-dimethyl-5,6-dihydro-2H-1,2,4-thiadiazine 1,1-dioxide]
147 nM	33%	35%	18 nM	4 nM	125000 nM	C#C[C@H](C)Oc1cnc(/C(F)=C/c2ccc(F)c([C@@]3(C)N=C(N)[C@@]4(CF)CC[C@@H]3S4(=O)=O)c2)cn1 [Example 128, (1R,4R,5S)-2-amino-4-(5-((Z)-2-(5-((S)-but-3-yn-2-yloxy)pyrazin-2-yl)-2-fluorovinyl)-2-fluorophenyl)-1-(fluoromethyl)-4-methyl-8-thia-3-azabicyclo[3.2.1]oct-2-ene 8,8-dioxide]
175 nM	64%	70%	8 nM	6 nM	129000 nM	CN1C(N)=N[C@](C)(c2cc(/C=C(\F)c3ccc(C#N)cn3)ccc2F)C2(CC2)S1(=O)=O [Example 127, (R,Z)-6-(2-(3-(6-amino-5,8-dimethyl-4,4-dioxido-4-thia-5,7-diazaspiro[2.5]oct-6-en-8-yl)-4-fluorophenyl)-1-fluorovinyl)nicotinonitrile]
451 nM	19%	43%	24 nM	5 nM	375000 nM	C#C[C@H](C)Oc1cnc(/C(F)=C/c2ccc(F)c([C@@]3(C)N=C(N)N(C)S(=O)(=O)C3(C)C)c2)cn1 [Example 186, (R)-3-amino-5-(5-((Z)-2-(5-((S)-but-3-yn-2-yloxy)pyrazin-2-yl)-2-fluorovinyl)-2-fluorophenyl)-2,5,6,6-tetramethyl-5,6-dihydro-2H-1,2,4-thiadiazine 1,1-dioxide]
–	43%	58%	–	–	–	CC#C[C@H](CC)Oc1cnc(/C(F)=C/c2ccc(F)c([C@]3(C)CS(=O)(=O)C(C)(C)C(N)=N3)c2)cn1 [Example 199, (R)-5-amino-3-(2-fluoro-5-((Z)-2-fluoro-2-(5-((S)-hex-4-yn-3-yloxy)pyrazin-2-yl)vinyl)phenyl)-3,6,6-trimethyl-3,6-dihydro-2H-1,4-thiazine 1,1-dioxide]
38 nM	–	–	75 nM	10 nM	117000 nM	CC1(C)C(N)=N[C@](C)(c2cc(/C=C(\F)c3ncc(C(F)(F)F)cc3Cl)ccc2F)CS1(=O)=O [Example 264, (R,Z)-5-amino-3-(5-(2-(3-chloro-5-(trifluoromethyl)pyridin-2-yl)-2-fluorovinyl)-2-fluorophenyl)-3,6,6-trimethyl-3,6-dihydro-2H-1,4-thiazine 1,1-dioxide]
52 nM	–	–	21 nM	7 nM	28300 nM	CN1C(N)=N[C@](C)(c2cc(/C=C(\F)c3cnc(OCC#CCF)cn3)ccc2F)CS1(=O)=O [Example 254, (R,Z)-3-amino-5-(2-fluoro-5-(2-fluoro-2-(5-((4-fluorobut-2-yn-1-yl)oxy)pyrazin-2-yl)vinyl)phenyl)-2,5-dimethyl-5,6-dihydro-2H-1,2,4-thiadiazine 1,1-dioxide]
123 nM	–	–	318 nM	101 nM	196000 nM	C[C@]1(c2cc(/C=C(\F)c3cnc(OCC(F)F)cn3)ccc2F)N=C(N)[C@@]2(CF)CC[C@@H]1S2(=O)=O [Example 134, (1R,4R,5S)-2-amino-4-(5-((Z)-2-(5-(2,2-difluoroethoxy)pyrazin-2-yl)-2-fluorovinyl)-2-fluorophenyl)-1-(fluoromethyl)-4-methyl-8-thia-3-azabicyclo[3.2.1]oct-2-ene 8,8-dioxide]
274 nM	–	–	74 nM	6 nM	104000 nM	C#CCOc1cnc(/C(F)=C/c2ccc(F)c([C@]3(CF)CS(=O)(=O)C(C)(C)C(N)=N3)c2)cn1 [Example 190, (S,Z)-5-amino-3-(2-fluoro-5-(2-fluoro-2-(5-(prop-2-yn-1-yloxy)pyrazin-2-yl)vinyl)phenyl)-3-(fluoromethyl)-6,6-dimethyl-3,6-dihydro-2H-1,4-thiazine 1,1-dioxide]
57 nM	–	–	222 nM	13 nM	155000 nM	CC1(C)C(N)=N[C@](CF)(c2cc(/C=C(\F)c3ccc(C#N)cn3)ccc2F)CS1(=O)=O [Example 188, (S,Z)-6-(2-(3-(5-amino-3-(fluoromethyl)-6,6-dimethyl-1,1-dioxido-3,6-dihydro-2H-1,4-thiazin-3-yl)-4-fluorophenyl)-1-fluorovinyl)nicotinonitrile]
151 nM	–	–	339 nM	131 nM	428000 nM	C[C@]1(c2cc(/C=C(\F)c3cnc(OCCF)cn3)ccc2F)N=C(N)[C@@]2(CF)CC[C@@H]1S2(=O)=O [Example 133, (1R,4R,5S)-2-amino-4-(2-fluoro-5-((Z)-2-fluoro-2-(5-(2-fluoroethoxy)pyrazin-2-yl)vinyl)phenyl)-1-(fluoromethyl)-4-methyl-8-thia-3-azabicyclo[3.2.1]oct-2-ene 8,8-dioxide]
533 nM	–	–	128 nM	268 nM	160000 nM	C[C@@H]1COc2nc(/C(F)=C/c3ccc(F)c([C@]4(C)CS(=O)(=O)N(C)C(N)=N4)c3)ncc2O1 [Example 235, (R)-3-amino-5-(2-fluoro-5-((Z)-2-fluoro-2-((R)-6-methyl-6,7-dihydro-[1,4]dioxino[2,3-d]pyrimidin-2-yl)vinyl)phenyl)-2,5-dimethyl-5,6-dihydro-2H-1,2,4-thiadiazine 1,1-dioxide]
180 nM	–	–	191 nM	98 nM	> 400000 nM	COc1cnc(/C(F)=C/c2ccc(F)c([C@@]3(C)N=C(N)[C@@]4(CF)CC[C@@H]3S4(=O)=O)c2)cn1 [Example 121, (1R,4R,5S)-2-amino-4-(2-fluoro-5-((Z)-2-fluoro-2-(5-methoxypyrazin-2-yl)vinyl)phenyl)-1-(fluoromethyl)-4-methyl-8-thia-3-azabicyclo[3.2.1]oct-2-ene 8,8-dioxide]
46 nM	–	–	35 nM	12 nM	76100 nM	CC1(C)C(N)=N[C@](C)(c2cc(/C=C(\F)c3ccc(C#N)cn3)cc(F)c2F)CS1(=O)=O [Example 192, (R,Z)-6-(2-(3-(5-amino-3,6,6-trimethyl-1,1-dioxido-3,6-dihydro-2H-1,4-thiazin-3-yl)-4,5-difluorophenyl)-1-fluorovinyl)nicotinonitrile]
31 nM	–	–	2 nM	1 nM	182000 nM	CN1C(N)=N[C@](C)(c2cc(/C=C(\F)c3ccc(C#N)cn3)ccc2F)CS1(=O)=O [Example 106, (R,Z)-6-(2-(3-(3-amino-2,5-dimethyl-1,1-dioxido-5,6-dihydro-2H-1,2,4-thiadiazin-5-yl)-4-fluorophenyl)-1-fluorovinyl)nicotinonitrile]
